Consider 26 molecules from PubChem BioAssay (NCI).

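Cells were grown in 96-well plates and exposed to each compound for 48 hours at five concentrations; endpoints were interpolated linearly between bracketing concentrations, or set to the highest concentration if not reached. The concentration for 50% growth inhibition is given as GI50. TGI is the concentration that stops growth completely.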 A value given as a limit tells only on which side of the number the result lay.

One assay has as its system UACC-62 melanoma. Briefly: NCI tumour cell line growth inhibition, 48 h.
On to `COc1cc(C)c2c(c1C)OC(=O)c1c(C)c(Cl)c(O)c(C=O)c1O2`, for which the TGI is 43.6 µM.

As for `COC(=O)/C(C=O)=C/Sc1ccccc1`, the TGI is 77.8 µM.

On to `Nc1ccn(C2(CO)C=C(CO)C(O)C2O)c(=O)n1` (configuration not stated), for which the TGI was over 25.8 µM.

In turn, `C=C1C[C@]23CCC4C(C)(C)C(=O)CC[C@]4(C)C2C[C@H]1C(O)C3=O` (some centres not stated) registered a TGI of over 75 µM.

Consider `CC1(C)O/C(=C\c2ccccc2)C(=O)/C(=C/c2ccccc2)O1`, for which the TGI is over 100 µM.

`O=C1CC2C(=O)N(Cc3ccccc3)C1C=C2S(=O)(=O)c1ccccc1` (configuration not stated): the TGI is over 100 µM.

For the molecule `Cc1ccc(S(=O)(=O)NCCNc2nccc(-c3c(-c4ccc(F)cc4)nc4sccn34)n2)cc1`, the GI50 was 3.95 µM and the TGI is over 100 µM.

Molecule `O=c1[nH]c2cc(Cl)ccc2nc1/C(=N\O)C(O)c1ccc(Cl)cc1Cl` (configuration not stated) returned a TGI of over 100 µM.

`CC(C)CCCC(C)[C@H]1CCC2[C@H]3C(CC[C@@]21C)[C@@]1(C)CCC=C[C@]12C[C@@H]2[C@@H]3O` (some centres not stated) came in with a TGI of over 100 µM.

In turn, `O=C(Nc1cc(Cl)ccc1Cl)C(=O)C(c1cnc2ccccc2n1)[N+](=O)[O-]` (configuration not stated) returned a TGI of over 100 µM.

For `Cc1cc[c-]cc1.Fc1c[c-]c(-c2ccccn2)c(F)c1.[Pt+2].c1ccc(P(C[PH+](c2ccccc2)c2ccccc2)c2ccccc2)cc1`, the GI50 is 2.04 µM and the TGI was 9.31 µM.

`COC(=O)CCC(=O)CC1CC(=O)C2CCCN12` (configuration not stated): the TGI was over 100 µM.

Molecule `Cc1cc(NS(=O)(=O)c2ccc(Nc3c4ccccc4nc4c(C(=O)NCCN(C)C)cccc34)cc2)no1` had a TGI of 14.4 µM.

For the molecule `Nc1nc(CCl)nc(Nc2ccccc2)n1`, the TGI came to 34.6 µM.

As to `O=S1OC2(c3ccccc3-c3ccccc32)c2ccccc21` (configuration not stated), the TGI was over 100 µM.

`CCOC(=N)CC(=O)Nc1cccc(C)c1C` showed a TGI of over 100 µM.

The test system of a further assay is SN12C renal. Description: NCI tumour cell line growth inhibition, 48 h.
Consider `COc1cc2ccc3c4cc(OC)c(OC(C)C)cc4cnc3c2cc1OC`, for which the TGI was over 100 µM.

On to `N#C/C(=C/N1CCN(C(=O)c2ccco2)C1=S)C(=O)c1ccccc1`, for which the GI50 is 8.64 µM and the TGI came to 25 µM.

Regarding `CN(CCCNC(=O)Cc1ccc2ccc3cccc4ccc1c2c34)CCCNc1cc(-c2ccc3ccccc3c2)nc2ccccc12`, the GI50 was 1.68 µM and the TGI turned out to be 3.29 µM.

In the case of `CC(=O)c1sc(-c2nc(C)c(C(=O)/C=C\c3ccc(/C=C\C(=O)c4sc(-c5nc(C)c(C(C)=O)s5)nc4C)cc3)s2)nc1C`, the TGI was over 100 µM.

In turn, `Cc1ccc(C2(O)CC(c3ccc([N+](=O)[O-])o3)=NN2C(=O)COc2ccc(Cl)cc2)cc1` (configuration not stated) registered a TGI of 17.9 µM.

For the molecule `CC1=NN(C(=O)CC(=O)N(C(=O)c2ccccc2Cl)c2ccc(C)cc2)C(=O)C1N=Nc1ccc([N+](=O)[O-])cc1` (configuration not stated), the TGI is over 100 µM.

`CC(C)(C=O)CC(C#N)/C(=N\NC(N)=O)C(=O)Nc1ccccc1C(N)=O` (configuration not stated) returned a TGI of over 100 µM.

For `Cc1cc(C)c(C2[C@H]3C(=O)N(c4ccc(Cc5ccc(N6C(=O)[C@@H]7ON(c8ccccc8)C(c8c(C)cc(C)cc8C)[C@@H]7C6=O)cc5)cc4)C(=O)[C@H]3ON2c2ccccc2)c(C)c1` (some centres not stated), the TGI is over 100 µM.

`COc1ccc2[nH]c3c4c(ccc3c2c1)C(=O)C=CC4=O` gave a TGI of 24.4 µM.

In turn, `CCCCOC(=O)NC(=O)c1cn(CCCOC(=O)NCCCCCCNC(=O)OCCCn2cc(C(=O)NC(=O)OCCCC)c(=O)[nH]c2=O)c(=O)[nH]c1=O` had a TGI of over 100 µM.

In the case of `COc1cc(C)c2c(c1C)OC(=O)c1c(C)c(Cl)c(O)c(C=O)c1O2`, the TGI is over 100 µM.

In the case of `COC(=O)/C(C=O)=C/Sc1ccccc1`, the TGI was determined as 42.9 µM.

`Nc1ccn(C2(CO)C=C(CO)C(O)C2O)c(=O)n1` (configuration not stated) had a TGI of over 25.8 µM.

Consider `C=C1C[C@]23CCC4C(C)(C)C(=O)CC[C@]4(C)C2C[C@H]1C(O)C3=O` (some centres not stated), for which the TGI is over 75 µM.

On to `CC1(C)O/C(=C\c2ccccc2)C(=O)/C(=C/c2ccccc2)O1`, for which the TGI was over 100 µM.

On to `O=C1CC2C(=O)N(Cc3ccccc3)C1C=C2S(=O)(=O)c1ccccc1` (configuration not stated), for which the TGI is over 100 µM.

As to `Cc1ccc(S(=O)(=O)NCCNc2nccc(-c3c(-c4ccc(F)cc4)nc4sccn34)n2)cc1`, the GI50 is 4.78 µM and the TGI is over 100 µM.

Molecule `O=c1[nH]c2cc(Cl)ccc2nc1/C(=N\O)C(O)c1ccc(Cl)cc1Cl` (configuration not stated) displayed a TGI of over 100 µM.

`CC(C)CCCC(C)[C@H]1CCC2[C@H]3C(CC[C@@]21C)[C@@]1(C)CCC=C[C@]12C[C@@H]2[C@@H]3O` (some centres not stated) yielded a TGI of over 100 µM.

As to `O=C(Nc1cc(Cl)ccc1Cl)C(=O)C(c1cnc2ccccc2n1)[N+](=O)[O-]` (configuration not stated), the TGI was over 100 µM.

Take `Cc1cc[c-]cc1.Fc1c[c-]c(-c2ccccn2)c(F)c1.[Pt+2].c1ccc(P(C[PH+](c2ccccc2)c2ccccc2)c2ccccc2)cc1`: the GI50 was 2.4 µM and the TGI is 10.1 µM.

`COC(=O)CCC(=O)CC1CC(=O)C2CCCN12` (configuration not stated) had a TGI of over 100 µM.

`Cc1cc(NS(=O)(=O)c2ccc(Nc3c4ccccc4nc4c(C(=O)NCCN(C)C)cccc34)cc2)no1` gave a TGI of over 100 µM.

Take `O=S1OC2(c3ccccc3-c3ccccc32)c2ccccc21` (configuration not stated): the TGI is over 100 µM.

The molecule `CCOC(=N)CC(=O)Nc1cccc(C)c1C` came in with a TGI of over 100 µM.

The test system of the next assay is SNB-19 CNS. Description: NCI tumour cell line growth inhibition, 48 h.
Consider `COc1cc2ccc3c4cc(OC)c(OC(C)C)cc4cnc3c2cc1OC`, for which the TGI was over 100 µM.

Regarding `N#C/C(=C/N1CCN(C(=O)c2ccco2)C1=S)C(=O)c1ccccc1`, the GI50 was 39.7 µM and the TGI was over 100 µM.

As for `CN(CCCNC(=O)Cc1ccc2ccc3cccc4ccc1c2c34)CCCNc1cc(-c2ccc3ccccc3c2)nc2ccccc12`, the GI50 is 1.74 µM and the TGI was determined as 3.18 µM.

Turning to `CC(=O)c1sc(-c2nc(C)c(C(=O)/C=C\c3ccc(/C=C\C(=O)c4sc(-c5nc(C)c(C(C)=O)s5)nc4C)cc3)s2)nc1C`, the TGI was over 100 µM.

Consider `Cc1ccc(C2(O)CC(c3ccc([N+](=O)[O-])o3)=NN2C(=O)COc2ccc(Cl)cc2)cc1` (configuration not stated), for which the TGI is 67.3 µM.

`CC1=NN(C(=O)CC(=O)N(C(=O)c2ccccc2Cl)c2ccc(C)cc2)C(=O)C1N=Nc1ccc([N+](=O)[O-])cc1` (configuration not stated) displayed a TGI of over 100 µM.

`CC(C)(C=O)CC(C#N)/C(=N\NC(N)=O)C(=O)Nc1ccccc1C(N)=O` (configuration not stated) displayed a TGI of over 100 µM.

The molecule `Cc1cc(C)c(C2[C@H]3C(=O)N(c4ccc(Cc5ccc(N6C(=O)[C@@H]7ON(c8ccccc8)C(c8c(C)cc(C)cc8C)[C@@H]7C6=O)cc5)cc4)C(=O)[C@H]3ON2c2ccccc2)c(C)c1` (some centres not stated) gave a TGI of over 100 µM.

Take `COc1ccc2[nH]c3c4c(ccc3c2c1)C(=O)C=CC4=O`: the TGI was over 79.1 µM.

`CCCCOC(=O)NC(=O)c1cn(CCCOC(=O)NCCCCCCNC(=O)OCCCn2cc(C(=O)NC(=O)OCCCC)c(=O)[nH]c2=O)c(=O)[nH]c1=O` had a TGI of over 100 µM.

Molecule `COc1cc(C)c2c(c1C)OC(=O)c1c(C)c(Cl)c(O)c(C=O)c1O2` gave a TGI of over 100 µM.

In the case of `COC(=O)/C(C=O)=C/Sc1ccccc1`, the TGI is over 100 µM.

The molecule `Nc1ccn(C2(CO)C=C(CO)C(O)C2O)c(=O)n1` (configuration not stated) gave a TGI of over 25.8 µM.
